“And” between values parts separate entries of the source, which are not always exact repeats. Equal values may be shown once. Read-outs that look alike come from different tables or passages of the source. Each block holds one molecule with its values, some of them ahead of it. Non-standard residues stand in square brackets, D forms with d. Residues, ends and D or L forms follow the SMILES beside them. No end group written: not given here. Phe(4-NH2) = Nc1ccc(C[C@H](N)C(=O)O)cc1; d(aIle) = CC[C@H](C)[C@@H](N)C(=O)O; hArg = N=C(N)NCCCC[C@H](N)C(=O)O; hPhe = N[C@@H](CCc1ccccc1)C(=O)O; Cit = NC(=O)NCCC[C@H](N)C(=O)O; dTle = CC(C)(C)[C@@H](N)C(=O)O; Phg = N[C@H](C(=O)O)c1ccccc1; hLys = NCCCCC[C@H](N)C(=O)O; hSer = N[C@@H](CCO)C(=O)O; ChCar = not defined here; dAbu = CC[C@@H](N)C(=O)O; dia = not defined here
Legend:
[1] = target: human plasma kallikrein (HPK) (Homo sapiens, UniProt P03952); experiment: Inhibition of human plasma kallikrein (KI); format: biochemical
Chain of human plasma kallikrein (HPK) (P03952 20-638): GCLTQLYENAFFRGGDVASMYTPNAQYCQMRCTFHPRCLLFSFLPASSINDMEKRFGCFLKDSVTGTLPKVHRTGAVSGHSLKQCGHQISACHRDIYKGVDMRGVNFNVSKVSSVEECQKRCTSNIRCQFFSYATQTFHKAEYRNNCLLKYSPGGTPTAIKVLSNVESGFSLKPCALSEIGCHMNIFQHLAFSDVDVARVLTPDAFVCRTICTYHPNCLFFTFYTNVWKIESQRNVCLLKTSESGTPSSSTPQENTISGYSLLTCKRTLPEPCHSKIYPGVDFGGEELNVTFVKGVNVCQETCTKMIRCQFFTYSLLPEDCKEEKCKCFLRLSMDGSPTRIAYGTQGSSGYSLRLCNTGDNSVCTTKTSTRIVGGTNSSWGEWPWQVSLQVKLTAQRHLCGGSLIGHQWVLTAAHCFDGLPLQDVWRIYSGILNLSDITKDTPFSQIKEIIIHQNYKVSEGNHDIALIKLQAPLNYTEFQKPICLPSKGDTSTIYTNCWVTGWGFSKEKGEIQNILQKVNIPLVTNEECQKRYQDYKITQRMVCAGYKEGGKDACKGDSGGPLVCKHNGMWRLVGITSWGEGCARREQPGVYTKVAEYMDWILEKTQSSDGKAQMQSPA
Description: Assay methods were based on the cleavage of chromogenic substrate S-2266 (D-Val-Leu-Arg-pNA) (Kabi; Charlotte, N.C.) by porcine pancreatic kallikrein (Sigma Chemical Company; St. Louis, Mo.) to yield an increase in absorbance at 405 nm. By changing the substrate and enzyme, the general method has been extended to measure the inhibition of human tissue kallikrein (HTK or human urinary kallikrein HUK), human plasma kallikrein (HPK), plasmin, and urokinase (UK). In all assays, the robot dilutes the inhibitor into a series of wells and adds substrate and buffer. Chromogenic reactions are started by the addition of enzyme. Changes in the absorbance at 405 nm in an array of wells were recorded. All manipulations were performed by the instrument from reservoirs containing substrate, inhibitor, diluent (water), buffer, or enzyme.

[2] = target: porcine pancreatic kallikrein (PPK) (Sus scrofa, UniProt P00752); experiment: Inhibition of porcine pancreatic kallikrein, cleavage of chromogenic substrate S-2266 (KI); format: biochemical
Chain of porcine pancreatic kallikrein (PPK) (P00752 8-87 limits assumed): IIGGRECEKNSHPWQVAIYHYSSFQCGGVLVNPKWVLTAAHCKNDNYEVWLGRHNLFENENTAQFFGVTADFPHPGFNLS
Chain of porcine pancreatic kallikrein (PPK) (P00752 95-246 limits assumed): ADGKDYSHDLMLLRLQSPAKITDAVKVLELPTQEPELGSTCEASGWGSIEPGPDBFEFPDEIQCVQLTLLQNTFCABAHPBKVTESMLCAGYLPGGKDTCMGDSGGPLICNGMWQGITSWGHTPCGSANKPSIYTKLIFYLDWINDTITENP

[3] = Table 5, Pro-Phe-Arg-X-Val-Gln, read-out: KI HPK
[4] = Table 5, Pro-Phe-Arg-X-Val-Gln, read-out: KI PPK
[5] = Table 4, Pro-X-Arg-Ser-Val-Gln, read-out: KI HPK
[6] = Table 4, Pro-X-Arg-Ser-Val-Gln, read-out: KI PPK
[7] = Table 2, P3 substitutions, read-out: log KI (converted)

Molecule: CC(C)[C@H](NC(=O)[C@H](C)NC(=O)[C@H](CCCNC(=N)N)NC(=O)[C@H](Cc1ccccc1)NC(=O)[C@@H]1CCCN1)C(=O)N[C@@H](CCC(N)=O)C(N)=O [Ala] (H-PFRAVQ-NH2)
- Ki [1, 3]: 0.536 mM
- Ki [2, 4]: 131 µM and 161 µM

Molecule: N=C(N)NCCC[C@H](NC(=O)[C@H](CC(N)=O)NC(=O)[C@H](CCCNC(=N)N)NC(=O)[C@H](Cc1ccccc1)NC(=O)[C@@H](N)CCCNC(=N)N)C(=O)N[C@@H](CCC(N)=O)C(N)=O [Arg-Phe-Arg-Asn-Arg-Gln] (H-RFRNRQ-NH2)
- Ki ([1]; Table 6, HUK, read-out: KI HUK): 0.052 mM

Molecule: CC(C)[C@H](NC(=O)[C@@H](CO)NC(=O)[C@H](CCCNC(=N)N)NC(=O)[C@H](Cc1ccccc1)NC(=O)[C@@H]1CCCN1)C(=O)N[C@@H](CCC(N)=O)C(N)=O [D-Ser] (H-PFR[dS]VQ-NH2)
- Ki [2, 4]: 1120 µM

Molecule: CC(C)[C@H](NC(=O)[C@H](CCO)NC(=O)[C@H](CCCNC(=N)N)NC(=O)[C@H](Cc1ccccc1)NC(=O)[C@@H]1CCCN1)C(=O)N[C@@H](CCC(N)=O)C(N)=O [Hse] (H-PFR[hSer]VQ-NH2)
- Ki [1, 3]: 0.359 mM
- Ki [2, 4]: 163 µM

Molecule: CC(C)[C@H](N)C(=O)N[C@@H](Cc1ccccc1)C(=O)N[C@H](C=O)Cc1ccc(N)cc1 [KITDS-2, Val-Phe-Phe(4NH2)-aldehyde] (H-Val-Phe-[Phe(4-NH2)]-aldehyde)
- Ki ([2]; Table 7, read-out: K1 PPK): 160 µM

Molecule: Nc1ccc(C[C@@H](C=O)NC(=O)[C@H](Cc2ccccc2)NC(=O)[C@@H]2CCCN2C(=O)[C@@H](N)Cc2ccccc2)cc1 [KITSD-1, Phe-Pro-Phe-Phe(4NH2)-aldehyde] (H-FPF[Phe(4-NH2)]-aldehyde)
- Ki ([2]; Table 7, read-out: K1 PPK): 27 µM

Molecule: CC[C@H](C)[C@H](NC(=O)[C@H](CCCNC(=N)N)NC(=O)[C@H](C)NC(=O)[C@H](CCCCN)NC(=O)[C@H](CS)NC(=O)[C@@H]1CCCN1)C(N)=O [Pro-Cys-Lys-Ala-Arg-Ile] (H-PCKARI-NH2)
- Ki ([1]; Table 6, HUK, read-out: KI HUK): 0.00018 mM
- Ki ([2]; Table 6, read-out: KI PPK): 0.003 µM

Molecule: CC(C)[C@H](N)C(=O)N[C@@H](Cc1ccccc1)C(=O)N[C@@H](CCCNC(=N)N)C(=O)N[C@@H](CC(N)=O)C(=O)N[C@@H](CCCNC(=N)N)C(=O)N[C@@H](CCC(N)=O)C(N)=O [Val-Phe-Arg-Asn-Arg-Gln] (H-VFRNRQ-NH2)
- Ki ([1]; Table 6, HUK, read-out: KI HUK): 0.532 mM

Molecule: CC(C)[C@H](N)C(=O)N[C@@H](Cc1ccccc1)C(=O)N[C@@H](CCCNC(=N)N)C(=O)N[C@@H](CC(N)=O)C(=O)N[C@@H](CC(N)=O)C(=O)N[C@@H](CCCNC(=N)N)C(N)=O [Val-Phe-Arg-Asn-Asn-Arg] (H-VFRNNR-NH2)
- Ki ([1]; Table 6, HUK, read-out: KI HUK): 0.124 mM

Molecule: CC(C)[C@H](N)C(=O)N[C@@H](Cc1ccccc1)C(=O)N[C@@H](CCCNC(=N)N)C(=O)N[C@@H](CC(N)=O)C(=O)N[C@@H](CO)C(=O)N[C@@H](CCCNC(=N)N)C(N)=O [Val-Phe-Arg-Asn-Ser-Arg] (H-VFRNSR-NH2)
- Ki ([1]; Table 6, HUK, read-out: KI HUK): 0.194 mM

Molecule: CC(C)[C@H](N)C(=O)N[C@@H](Cc1ccccc1)C(=O)N[C@@H](CCCNC(=N)N)C(=O)N[C@@H](CC(N)=O)C(=O)N[C@H](CCCNC(=N)N)C(=O)N[C@@H](CCC(N)=O)C(N)=O [Val-Phe-Arg-Asn-dArg-Gln] (H-VFRN[dR]Q-NH2)
- Ki ([1]; Table 6, HUK, read-out: KI HUK): 1.57 mM

Molecule: CC(C)[C@H](N)C(=O)N[C@@H](Cc1ccccc1)C(=O)N[C@@H](CCCCNC(=N)N)C(=O)N[C@@H](CC(N)=O)C(=O)N[C@@H](CCCCNC(=N)N)C(=O)N[C@@H](CCC(N)=O)C(N)=O [Val-Phe-hArg-Asn-hArg-Gln] (H-VF[hArg]N[hArg]Q-NH2)
- Ki ([1]; Table 6, HUK, read-out: KI HUK): 0.298 mM
- Ki ([2]; Table 6, read-out: KI PPK): 2.9 µM and 10 µM

Molecule: ChCar-Phe-Arg-dia-Val-Gln (ChCar-FR[dia]VQ; reading uncertain; also: printed as ChCar-Phe-Arg-dia-Val-Gln)
- Ki ([1]; Table 6, HUK, read-out: KI HUK): 0.985 mM
- Ki ([2]; Table 6, read-out: KI PPK): 114 µM

Now from value to molecule:

- Ki [1, 5]: 0.545 mM
- Ki [2, 6]: 402 µM
Molecule: CC(C)[C@H](NC(=O)[C@H](CO)NC(=O)[C@H](CCCNC(=N)N)NC(=O)[C@H](CCc1ccccc1)NC(=O)[C@@H]1CCCN1)C(=O)N[C@@H](CCC(N)=O)C(N)=O [KCH-2] (H-P[hPhe]RSVQ-NH2)

- KI HPK ([1]; Table 4, Pro-X-Arg-Ser-Val-Gln): ni
- Ki [2, 6]: 1320 µM
Molecule: CC(C)[C@H](NC(=O)[C@H](CO)NC(=O)[C@H](CCCNC(=N)N)NC(=O)[C@@H](NC(=O)[C@@H]1CCCN1)c1ccccc1)C(=O)N[C@@H](CCC(N)=O)C(N)=O [KCH-5] (H-P[Phg]RSVQ-NH2)

- Ki [1, 5]: 0.449 mM
- Ki [2, 6]: 230 µM
Molecule: CC(C)[C@H](NC(=O)[C@H](CO)NC(=O)[C@H](CCCNC(=N)N)NC(=O)[C@H](Cc1c[nH]c2ccccc12)NC(=O)[C@@H]1CCCN1)C(=O)N[C@@H](CCC(N)=O)C(N)=O [KCH-11] (H-PWRSVQ-NH2)

- Ki ([1]; Table 7, in mM, read-out: K1 HPK): > 5 mM
- Ki ([2]; Table 7, in mM, read-out: K1 PPK): > 3000 µM
Molecule: CC(C)[C@H](NC(=O)[C@H](CO)NC(=O)[C@H](CCCNC(N)=O)NC(=O)[C@H](Cc1ccccc1)NC(=O)[C@@H]1CCCN1)C(=O)N[C@@H](CCC(N)=O)C(N)=O [KIDZ-7, Pro-Phe-Cit-Ser-Val-Gln] (H-PF[Cit]SVQ-NH2)

- Ki ([2]; Table 7, read-out: K1 PPK): 203 µM
Molecule: CC(C)[C@H](NC(=O)[C@H](CO)NC(=O)[C@H](CCCCCN)NC(=O)[C@H](Cc1ccccc1)NC(=O)[C@@H]1CCCN1)C(=O)N[C@@H](CCC(N)=O)C(N)=O [KIDZ-8, Pro-Phe-hLys-Ser-Val-Gln] (H-PF[hLys]SVQ-NH2)

- Ki [2, 7]: 79.4 µM
Molecule: CC(C)[C@H](NC(=O)[C@H](CO)NC(=O)[C@H](CCCNC(=N)N)NC(=O)[C@H](Cc1ccccc1)NC(=O)CN)C(=O)N[C@@H](CCC(N)=O)C(N)=O [KKI-80, Gly-Phe-Arg-Ser-Val-Gln] (H-GFRSVQ-NH2)

- Ki [2, 7]: 50.1 µM
Molecule: CC(C)[C@H](NC(=O)[C@H](CO)NC(=O)[C@H](CCCNC(=N)N)NC(=O)[C@H](Cc1ccccc1)NC(=O)[C@@H](C)N)C(=O)N[C@@H](CCC(N)=O)C(N)=O [KKI-81, [D-Ala]-Phe-Arg-Ser-Val-Gln] (H-[dA]FRSVQ-NH2)

- Ki [2, 7]: 43.7 µM
Molecule: CC[C@@H](N)C(=O)N[C@@H](Cc1ccccc1)C(=O)N[C@@H](CCCNC(=N)N)C(=O)N[C@@H](CO)C(=O)N[C@H](C(=O)N[C@@H](CCC(N)=O)C(N)=O)C(C)C [KKI-82, [D-Aab]-Phe-Arg-Ser-Val-Gln] (H-[dAbu]FRSVQ-NH2)

- Ki [2, 7]: 100 µM
Molecule: CC(C)[C@H](NC(=O)[C@H](CO)NC(=O)[C@H](CCCNC(=N)N)NC(=O)[C@H](Cc1ccccc1)NC(=O)[C@H](N)C(C)C)C(=O)N[C@@H](CCC(N)=O)C(N)=O [KKI-83, [D-Val]-Phe-Arg-Ser-Val-Gln] (H-[dV]FRSVQ-NH2)

- Ki [2, 7]: 75.9 µM
Molecule: CC(C)[C@H](NC(=O)[C@H](CO)NC(=O)[C@H](CCCNC(=N)N)NC(=O)[C@H](Cc1ccccc1)NC(=O)[C@H](N)C(C)(C)C)C(=O)N[C@@H](CCC(N)=O)C(N)=O [KKI-84, [D-t-BuGly]-Phe-Arg-Ser-Val-Gln] (H-[dTle]FRSVQ-NH2)

- Ki ([2]; text b291, β-PPK, read-out: KI): 34 µM
Molecule: CC[C@@H](C)[C@@H](N)C(=O)N[C@@H](Cc1ccccc1)C(=O)N[C@@H](CCCNC(=N)N)C(=O)N[C@@H](CO)C(=O)N[C@H](C(=O)N[C@@H](CCC(N)=O)C(N)=O)C(C)C [KKI-85, [D-Ile]-Phe-Arg-Ser-Val-Gln] (H-[dI]FRSVQ-NH2)

- Ki [2, 7]: 57.5 µM
Molecule: CC[C@H](C)[C@@H](N)C(=O)N[C@@H](Cc1ccccc1)C(=O)N[C@@H](CCCNC(=N)N)C(=O)N[C@@H](CO)C(=O)N[C@H](C(=O)N[C@@H](CCC(N)=O)C(N)=O)C(C)C [KKI-105] (H-[d(aIle)]FRSVQ-NH2)

Source: US5464820A, “Specific inhibitors of tissue kallikrein” (priority 1993, dated 1995)
